Laboratory results from PMC8236452, “Pharmacokinetics and safety of rucaparib in patients with advanced solid tumors and hepatic impairment” (Cancer Chemotherapy and Pharmacology, 2021).
Like-named read-outs stand apart in the source and are kept apart here.

Experiments:
[1] = design: method as in PMID 28222073; settings: immediate-release tablet; cited from earlier work
[2] = Urine pharmacokinetics (Ae0–24, CLR) after a single oral dose of rucaparib 600 mg in patients with advanced solid tumors; type: in vivo, human; settings: urine, single oral rucaparib 600 mg; for CL renal: human, po, 600 mg
Text: Stable deuterium-labeled analytes were used as internal standards.
PK parameters were estimated from the concentration–time profiles.

[3] = cited from earlier work
[4] = cited from earlier work; remark: listed apart in the source
[5] = design: method as in PMID 29799676, PMID 31250355, PMID 28264872; settings: 600 mg BID, cited from earlier work
[6] = design: method as in PMID 32129697; settings: in vitro; cited from earlier work
[7] = Plasma pharmacokinetics after a single oral dose of rucaparib 600 mg in patients with advanced solid tumors, by hepatic function group; settings: for AUC(0-inf) / AUC(0-t) / Cmax: human, plasma, 600 mg; for AUC(0-t): AUC0–last
Protocol: In Part 1, patients received a single oral dose of rucaparib 600 mg on day 1; PK samples were collected and safety monitored through day 7.
Sample collection, processing, and shipping were conducted according to standardized protocols shared across study sites. Plasma samples were collected for PK analysis at the predose assessment and at 1, 2, 3, 4, 8, 12, 24, 48, 72, 96, 120, and 144 h postdose. A predose urine sample was collected less than 12 h prior to study drug administration. Total urine was collected 0–12 h and 12–24 h postdose. Total (bound and unbound) concentrations of rucaparib and its metabolite M324 in plasma and urine samples were determined by Q Squared Solutions BioSciences (Ithaca, NY, USA) using validated liquid chromatography mass spectrometry/mass spectrometry methods. Stable deuterium-labeled analytes were used as internal standards. The assay calibration ranges for plasma samples were 5–10,000 ng/mL for rucaparib and 1–1000 ng/mL for M324 with lower limits of quantification (LLOQ) of 5.00 and 1.00 ng/mL, respectively. For urine samples, the calibration range was 500–50,000 ng/mL for both rucaparib and M324, with a LLOQ of 500 ng/mL for both analytes. The precision was within 9.3% CV, and the accuracy was within ± 6.2%.
PK parameters were estimated from the concentration–time profiles. Actual elapsed time after dosing was used to estimate plasma PK parameters based on noncompartmental methods using Phoenix® WinNonlin® version 8.1.0 (Certara USA, Inc., Princeton, NJ, USA). […] Exploratory PK parameters for M324 calculated based on plasma and urine concentration-time data were Cmax, AUC0–last, AUC0–inf, t1/2, tmax, Ae0–24, and CLR, as data allowed.
PK parameters were calculated by noncompartmental analysis, analyzed using descriptive statistics, and presented by hepatic functional status. Analysis of variance (ANOVA) was used to compare PK parameters (e.g., Cmax, AUC0–last, and AUC0–inf) between the normal hepatic function group and the moderate hepatic impairment group per NCI-ODWG criteria. PK values were log-transformed before analysis. Baseline covariates (e.g., creatinine clearance [CLcr], sex, age, BMI, and ECOG PS) were tested for any significant effect (P value < 0.05). Geometric least-squares means were used to calculate the ratios of the PK parameters in the hepatic impairment group to those in the control group, along with 90% confidence intervals (CIs). The Wilcoxon rank-sum test was used to compare tmax values between the two groups, and estimates of the median differences were determined, along with 90% CIs. In addition, the relationships between log-transformed PK parameters (AUC0–last, AUC0–inf, Cmax) for rucaparib and M324 and hepatic function parameters (bilirubin and aspartate aminotransferase [AST]) relevant to the classification of hepatic impairment according to NCI-ODWG were explored by a linear regression approach.

[8] = Child–Pugh mild hepatic impairment
[9] = Child–Pugh moderate hepatic impairment
[10] = Child–Pugh severe hepatic impairment
[11] = NCI-ODWG moderate hepatic impairment
[12] = NCI-ODWG normal hepatic function
[13] = estimated with 36% absolute oral bioavailability
[14] = ANOVA, NCI-ODWG moderate hepatic impairment vs normal hepatic function
[15] = Child–Pugh mild hepatic impairment, single oral rucaparib 600 mg
[16] = Child–Pugh moderate hepatic impairment, single oral rucaparib 600 mg
[17] = Child–Pugh severe hepatic impairment, single oral rucaparib 600 mg
[18] = NCI-ODWG moderate hepatic impairment, single oral rucaparib 600 mg
[19] = NCI-ODWG normal hepatic function, single oral rucaparib 600 mg
[20] = oral, Geometric LS means, ANOVA, NCI-ODWG moderate hepatic impairment (n = 8)
[21] = oral, Geometric LS means, ANOVA, NCI-ODWG normal hepatic function (n = 8)

## CNCc1ccc(-c2[nH]c3cc(F)cc4c3c2CCNC4=O)cc1 [rucaparib]
[1]
  absolute bioavailability, range: 30–45%
  mean absolute bioavailability: 36%
[2]; Child–Pugh mild hepatic impairment, read-out: CLR, GM
  CL renal: 55.2 mL/min
[2]; Child–Pugh mild hepatic impairment, read-out: CLR, Mean (SD)
  CL renal: 56.7 mL/min
[2]; Child–Pugh mild hepatic impairment, read-out: CLR, Median (min–max)
  CL renal: 59.5 mL/min
[2]; Child–Pugh moderate hepatic impairment, read-out: CLR, GM
  CL renal: 48.8 mL/min
[2]; Child–Pugh moderate hepatic impairment, read-out: CLR, Mean (SD)
  CL renal: 52.3 mL/min
[2]; Child–Pugh moderate hepatic impairment, read-out: CLR, Median (min–max)
  CL renal: 53.7 mL/min
[2]; Child–Pugh severe hepatic impairment, read-out: CLR, GM
  CL renal: 16 mL/min
[2]; Child–Pugh severe hepatic impairment, read-out: CLR, Mean (SD)
  CL renal: 20.1 mL/min
[2]; Child–Pugh severe hepatic impairment, read-out: CLR, Median (min–max)
  CL renal: 20.1 mL/min
[2]; NCI-ODWG moderate hepatic impairment, read-out: CLR, GM
  CL renal: 36.9 mL/min
[2]; NCI-ODWG moderate hepatic impairment, read-out: CLR, Mean (SD)
  CL renal: 46.2 mL/min
[2]; NCI-ODWG moderate hepatic impairment, read-out: CLR, Median (min–max)
  CL renal: 41.1 mL/min
[2]; NCI-ODWG normal hepatic function, read-out: CLR, GM
  CL renal: 52.5 mL/min
[2]; NCI-ODWG normal hepatic function, read-out: CLR, Mean (SD)
  CL renal: 53.5 mL/min
[2]; NCI-ODWG normal hepatic function, read-out: CLR, Median (min–max)
  CL renal: 56.1 mL/min
[2]; [8]
  Ae0–24, GM: 17.6 mg
  Ae0–24, Mean (SD): 20.7 (11.9) mg
  Ae0–24, Median (min–max): 21.4 (7.69–40.6) mg
[2]; [9]
  Ae0–24, GM: 28.2 mg
  Ae0–24, Mean (SD): 29.8 (9.93) mg
  Ae0–24, Median (min–max): 33.2 (16.7–41.5) mg
[2]; [10]
  Ae0–24, GM: 8.49 mg
  Ae0–24, Mean (SD): 8.89 (3.72) mg
  Ae0–24, Median (min–max): 8.89 (6.26–11.5) mg
[2]; [11]
  Ae0–24, GM: 16.0 mg
  Ae0–24, Mean (SD): 19.8 (13.7) mg
  Ae0–24, Median (min–max): 16.7 (6.26–41.5) mg
[2]; [12]
  Ae0–24, GM: 22.8 mg
  Ae0–24, Mean (SD): 25.4 (10.9) mg
  Ae0–24, Median (min–max): 27.0 (7.69–40.6) mg
[3]; [13]
  hepatic elimination route, share of total clearance: ~ 70%
  renal elimination route, share of total clearance: ~ 30%
[3]; single oral dose of [14C]-rucaparib 600 mg
  mean terminal half-life (t1/2): 25.9 h
[4]
  plasma protein binding: 70%
[5]; 54% CV
  AUC0–12 h at steady state: 16900 h⋅ng/mL
  mean steady-state maximum plasma concentration (Cmax,ss): 1940 ng/mL
[5]
  Median time to steady-state maximum concentration (tmax,ss): 6840 s
  time to achieve steady state: 1 week
[6]
  metabolic turnover rate: low
[7]; [14]
  AUC0-inf, Geometric mean ratio Moderate/normal (90% CI): 1.446
  AUC0–last, Geometric mean ratio Moderate/normal (90% CI): 1.335 (0.617–2.891)
  Cmax, Geometric mean ratio Moderate/normal (90% CI): 0.907 (0.605–1.362)
[7]; ANOVA, NCI-ODWG moderate hepatic impairment vs normal hepatic function, listed as Rucaparib
  AUC0-inf, Geometric mean ratio Moderate/normal (90% CI): 1.446 (0.668–3.131)
[7]; [15]
  CL/F, GM: 64.0 L/h
  CL/F, Mean (SD): 82.2 (59.5) L/h
  CL/F, Median (min–max): 68.3 (26.4–180) L/h
[7]; [16]
  CL/F, GM: 23.7 L/h
  CL/F, Mean (SD): 25.1 (8.62) L/h
  CL/F, Median (min–max): 28.4 (14.6–34.6) L/h
[7]; [17]
  CL/F, GM: 22.2 L/h
  CL/F, Mean (SD): 39.6 (46.4) L/h
  CL/F, Median (min–max): 39.6 (6.79–72.4) L/h
[7]; [18]
  CL/F, GM: 30.2 L/h
  CL/F, Mean (SD): 48.1 (56.8) L/h
  CL/F, Median (min–max): 29.1 (6.79–180) L/h
[7]; [19]
  CL/F, GM: 43.7 L/h
  CL/F, Mean (SD): 55.7 (42.7) L/h
  CL/F, Median (min–max): 33.1 (15.9–133) L/h
[7]; oral, AUC0-inf, Geometric LS means, ANOVA, NCI-ODWG moderate hepatic impairment (n = 8)
  AUC(0-inf): 19900 ng·h/mL
[7]; oral, AUC0-inf, Geometric LS means, ANOVA, NCI-ODWG normal hepatic function (n = 8)
  AUC(0-inf): 13700 ng·h/mL
[7]; [20]
  AUC(0-t): 17500 ng·h/mL
  Cmax: 583 ng/mL
[7]; [21]
  AUC(0-t): 13100 ng·h/mL
  Cmax: 642 ng/mL
[7]; po, AUC0–inf, GM, Child–Pugh mild hepatic impairment, single oral rucaparib 600 mg
  AUC(0-inf): 9370 ng·h/mL
[7]; po, AUC0–inf, GM, Child–Pugh moderate hepatic impairment, single oral rucaparib 600 mg
  AUC(0-inf): 25300 ng·h/mL
[7]; po, AUC0–inf, GM, Child–Pugh severe hepatic impairment, single oral rucaparib 600 mg
  AUC(0-inf): 27100 ng·h/mL
[7]; po, AUC0–inf, GM, NCI-ODWG moderate hepatic impairment, single oral rucaparib 600 mg
  AUC(0-inf): 19900 ng·h/mL
[7]; po, AUC0–inf, GM, NCI-ODWG normal hepatic function, single oral rucaparib 600 mg
  AUC(0-inf): 13700 ng·h/mL
[7]; po, AUC0–inf, Mean (SD), Child–Pugh mild hepatic impairment, single oral rucaparib 600 mg
  AUC(0-inf): 11900 ng·h/mL
[7]; po, AUC0–inf, Mean (SD), Child–Pugh moderate hepatic impairment, single oral rucaparib 600 mg
  AUC(0-inf): 26800 ng·h/mL
[7]; po, AUC0–inf, Mean (SD), Child–Pugh severe hepatic impairment, single oral rucaparib 600 mg
  AUC(0-inf): 48300 ng·h/mL
[7]; po, AUC0–inf, Mean (SD), NCI-ODWG moderate hepatic impairment, single oral rucaparib 600 mg
  AUC(0-inf): 29000 ng·h/mL
[7]; po, AUC0–inf, Mean (SD), NCI-ODWG normal hepatic function, single oral rucaparib 600 mg
  AUC(0-inf): 17000 ng·h/mL
